Measurements reported in ChEMBL document CHEMBL1201862, “PubChem BioAssay data set” (2004).
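In this assay, cells in 96-well plates receive the compound at five concentrations for 48 hours. Endpoints are linearly interpolated between the surrounding concentrations. The concentration for 50% growth inhibition is given as GI50.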 Activity calls are given as the source filed them. No stated cut-off is given here; in the data, active = GI50 up to about 1.1 µM and inactive = higher.

How the values were obtained:
Assay in all cases: DTP human tumour cell line panel, 48 h
NCI-H460 = tested on: NCI-H460
UACC-257 = tested on: UACC-257
SF-539 = tested on: SF-539
SR = tested on: SR
MDA-N = tested on: MDA-N
T47D = tested on: T47D
U-251 = tested on: U-251
RXF 393 = tested on: RXF 393
SF-295 = tested on: SF-295
SK-OV-3 = tested on: SK-OV-3
HCT-15 = tested on: HCT-15
M14 = tested on: M14
RPMI-8226 = tested on: RPMI-8226
NCI-H23 = tested on: NCI-H23
HOP-62 = tested on: HOP-62
Hs-578T = tested on: Hs-578T
SK-MEL-5 = tested on: SK-MEL-5
SN12C = tested on: SN12C
SK-MEL-28 = tested on: SK-MEL-28
UACC-62 = tested on: UACC-62
MCF7 = tested on: MCF7
K562 = tested on: K562
OVCAR-8 = tested on: OVCAR-8
OVCAR-5 = tested on: OVCAR-5
IGROV-1 = tested on: IGROV-1
SNB-75 = tested on: SNB-75
CAKI-1 = tested on: CAKI-1
KM12 = tested on: KM12
Malme-3M = tested on: Malme-3M
TK-10 = tested on: TK-10
BT-549 = tested on: BT-549
NCI-H226 = tested on: NCI-H226
UO-31 = tested on: UO-31
SF-268 = tested on: SF-268
SNB-19 = tested on: SNB-19
PC-3 = tested on: PC-3
SW-620 = tested on: SW-620
MDA-MB-231 = tested on: MDA-MB-231
OVCAR-3 = tested on: OVCAR-3
CCRF-CEM = tested on: CCRF-CEM
A549 = tested on: A549
DU-145 = tested on: DU-145
HL-60 = tested on: HL-60
ACHN = tested on: ACHN
NCI/ADR-RES = tested on: NCI/ADR-RES
OVCAR-4 = tested on: OVCAR-4
HCC 2998 = tested on: HCC 2998
HOP-92 = tested on: HOP-92
A498 = tested on: A498
SK-MEL-2 = tested on: SK-MEL-2
HT-29 = tested on: HT-29
MDA-MB-435 = tested on: MDA-MB-435
COLO 205 = tested on: COLO 205
NCI-H522 = tested on: NCI-H522
LOX IMVI = tested on: LOX IMVI
EKVX = tested on: EKVX
MOLT-4 = tested on: MOLT-4
786-0 = tested on: 786-0
HCT-116 = tested on: HCT-116

Question: O=C(NCCN(CCNC(=O)c1cccc(=O)n1O)CCNC(=O)c1cccc(=O)n1O)c1cccc(=O)n1O was tested. Which GI50 (NCI-H460) did it give?
Answer: > 100 µM (inactive)

Question: What about the GI50 (UACC-257) of the same molecule?
Answer: > 100 µM (inactive)

Question: And the GI50 (SF-539)?
Answer: > 100 µM (inactive)

Question: What about the GI50 (SR) of the same molecule?
Answer: > 100 µM (inactive)

Question: What about the GI50 (MDA-N) of the same molecule?
Answer: > 100 µM (inactive)

Question: What about the GI50 (T47D) of the same molecule?
Answer: > 100 µM (inactive)

Question: And the GI50 (U-251)?
Answer: > 100 µM (inactive)

Question: And the GI50 (RXF 393)?
Answer: > 100 µM (inactive)

Question: And the GI50 (SF-295)?
Answer: > 100 µM (inactive)

Question: What about the GI50 (SK-OV-3) of the same molecule?
Answer: > 100 µM (inactive)

Question: What about the GI50 (HCT-15) of the same molecule?
Answer: > 100 µM

Question: What about the GI50 (M14) of the same molecule?
Answer: > 100 µM (inactive)

Question: What about the GI50 (RPMI-8226) of the same molecule?
Answer: > 100 µM (inactive)

Question: And the GI50 (NCI-H23)?
Answer: > 100 µM (inactive)

Question: What about the GI50 (HOP-62) of the same molecule?
Answer: > 100 µM (inactive)

Question: What about the GI50 (Hs-578T) of the same molecule?
Answer: > 100 µM (inactive)

Question: And the GI50 (SK-MEL-5)?
Answer: > 100 µM (inactive)

Question: What about the GI50 (SN12C) of the same molecule?
Answer: > 100 µM (inactive)

Question: And the GI50 (SK-MEL-28)?
Answer: > 100 µM (inactive)

Question: What about the GI50 (UACC-62) of the same molecule?
Answer: > 100 µM (inactive)

Question: What about the GI50 (MCF7) of the same molecule?
Answer: > 100 µM (inactive)

Question: What about the GI50 (K562) of the same molecule?
Answer: > 100 µM (inactive)

Question: And the GI50 (OVCAR-8)?
Answer: > 100 µM (inactive)

Question: What about the GI50 (OVCAR-5) of the same molecule?
Answer: > 100 µM (inactive)

Question: And the GI50 (IGROV-1)?
Answer: > 100 µM (inactive)

Question: What about the GI50 (SNB-75) of the same molecule?
Answer: > 100 µM (inactive)

Question: And the GI50 (CAKI-1)?
Answer: > 100 µM (inactive)

Question: And the GI50 (KM12)?
Answer: > 100 µM (inactive)

Question: And the GI50 (Malme-3M)?
Answer: > 100 µM (inactive)

Question: And the GI50 (TK-10)?
Answer: > 100 µM (inactive)

Question: What about the GI50 (BT-549) of the same molecule?
Answer: > 100 µM (inactive)

Question: And the GI50 (NCI-H226)?
Answer: > 100 µM (inactive)

Question: And the GI50 (UO-31)?
Answer: > 100 µM (inactive)

Question: What about the GI50 (SF-268) of the same molecule?
Answer: > 100 µM (inactive)

Question: What about the GI50 (SNB-19) of the same molecule?
Answer: > 100 µM (inactive)

Question: And the GI50 (PC-3)?
Answer: > 100 µM (inactive)

Question: What about the GI50 (SW-620) of the same molecule?
Answer: > 100 µM (inactive)

Question: And the GI50 (MDA-MB-231)?
Answer: > 100 µM (inactive)

Question: What about the GI50 (OVCAR-3) of the same molecule?
Answer: > 100 µM (inactive)

Question: And the GI50 (CCRF-CEM)?
Answer: > 100 µM (inactive)

Question: What about the GI50 (A549) of the same molecule?
Answer: > 100 µM (inactive)

Question: And the GI50 (DU-145)?
Answer: > 100 µM (inactive)

Question: What about the GI50 (HL-60) of the same molecule?
Answer: > 100 µM (inactive)

Question: What about the GI50 (ACHN) of the same molecule?
Answer: > 100 µM (inactive)

Question: And the GI50 (NCI/ADR-RES)?
Answer: > 100 µM (inactive)

Question: And the GI50 (OVCAR-4)?
Answer: > 100 µM (inactive)

Question: What about the GI50 (HCC 2998) of the same molecule?
Answer: > 100 µM (inactive)

Question: What about the GI50 (HOP-92) of the same molecule?
Answer: > 100 µM (inactive)

Question: And the GI50 (A498)?
Answer: > 100 µM (inactive)

Question: What about the GI50 (SK-MEL-2) of the same molecule?
Answer: > 100 µM (inactive)

Question: And the GI50 (HT-29)?
Answer: > 100 µM (inactive)

Question: What about the GI50 (MDA-MB-435) of the same molecule?
Answer: > 100 µM (inactive)

Question: And the GI50 (COLO 205)?
Answer: > 100 µM (inactive)

Question: What about the GI50 (NCI-H522) of the same molecule?
Answer: > 100 µM (inactive)

Question: For CCc1nc(N)nc(N)c1-c1ccc(Cl)c(/N=N/N(C)C)c1, which GI50 (NCI-H460) is on record?
Answer: 6.59 µM (inactive)

Question: And the GI50 (UACC-257)?
Answer: 29.4 µM (inactive)

Question: What about the GI50 (SF-539) of the same molecule?
Answer: 23.1 µM (inactive)

Question: What about the GI50 (SR) of the same molecule?
Answer: 19.1 µM (inactive)

Question: And the GI50 (MDA-N)?
Answer: 36 µM (inactive)

Question: What about the GI50 (LOX IMVI) of the same molecule?
Answer: 24.5 µM (inactive)

Question: And the GI50 (T47D)?
Answer: 39.7 µM (inactive)

Question: What about the GI50 (U-251) of the same molecule?
Answer: 34.5 µM (inactive)

Question: And the GI50 (RXF 393)?
Answer: 41.4 µM (inactive)

Question: What about the GI50 (SF-295) of the same molecule?
Answer: 26.5 µM (inactive)

Question: And the GI50 (SK-OV-3)?
Answer: > 89.3 µM (inactive)

Question: What about the GI50 (HCT-15) of the same molecule?
Answer: 17.1 µM

Question: What about the GI50 (M14) of the same molecule?
Answer: 22.5 µM (inactive)

Question: And the GI50 (EKVX)?
Answer: 32.7 µM (inactive)

Question: What about the GI50 (RPMI-8226) of the same molecule?
Answer: 19 µM (inactive)

Question: And the GI50 (NCI-H23)?
Answer: 27.4 µM (inactive)

Question: And the GI50 (HOP-62)?
Answer: 23.2 µM (inactive)

Question: And the GI50 (Hs-578T)?
Answer: 30.3 µM (inactive)

Question: What about the GI50 (SK-MEL-5) of the same molecule?
Answer: 20.7 µM (inactive)

Question: And the GI50 (SN12C)?
Answer: 67.8 µM (inactive)

Question: What about the GI50 (SK-MEL-28) of the same molecule?
Answer: 29.1 µM (inactive)

Question: What about the GI50 (UACC-62) of the same molecule?
Answer: 24.9 µM (inactive)

Question: And the GI50 (MCF7)?
Answer: 37.7 µM (inactive)

Question: What about the GI50 (K562) of the same molecule?
Answer: 8.04 µM (inactive)

Question: What about the GI50 (OVCAR-8) of the same molecule?
Answer: 40.5 µM (inactive)

Question: What about the GI50 (OVCAR-5) of the same molecule?
Answer: > 82 µM (inactive)

Question: What about the GI50 (IGROV-1) of the same molecule?
Answer: 24.1 µM (inactive)

Question: And the GI50 (SNB-75)?
Answer: 61 µM (inactive)

Question: And the GI50 (CAKI-1)?
Answer: 36.1 µM (inactive)

Question: And the GI50 (KM12)?
Answer: 28.4 µM (inactive)

Question: What about the GI50 (TK-10) of the same molecule?
Answer: > 100 µM (inactive)

Question: What about the GI50 (MOLT-4) of the same molecule?
Answer: 26.5 µM (inactive)

Question: What about the GI50 (BT-549) of the same molecule?
Answer: 30.1 µM (inactive)

Question: And the GI50 (NCI-H226)?
Answer: 59.6 µM (inactive)

Question: And the GI50 (UO-31)?
Answer: 18.4 µM (inactive)

Question: What about the GI50 (SF-268) of the same molecule?
Answer: 49.2 µM (inactive)

Question: What about the GI50 (SNB-19) of the same molecule?
Answer: 44.4 µM (inactive)

Question: And the GI50 (PC-3)?
Answer: 24.5 µM (inactive)

Question: What about the GI50 (SW-620) of the same molecule?
Answer: 27.4 µM (inactive)

Question: What about the GI50 (MDA-MB-231) of the same molecule?
Answer: 48.8 µM (inactive)

Question: What about the GI50 (OVCAR-3) of the same molecule?
Answer: 37.6 µM (inactive)

Question: What about the GI50 (786-0) of the same molecule?
Answer: 35 µM (inactive)

Question: What about the GI50 (CCRF-CEM) of the same molecule?
Answer: 27 µM (inactive)

Question: What about the GI50 (A549) of the same molecule?
Answer: 17.2 µM (inactive)

Question: And the GI50 (DU-145)?
Answer: 55.7 µM (inactive)

Question: And the GI50 (HL-60)?
Answer: 20.8 µM (inactive)

Question: What about the GI50 (HCT-116) of the same molecule?
Answer: 15.4 µM (inactive)

Question: What about the GI50 (ACHN) of the same molecule?
Answer: 28.6 µM (inactive)

Question: And the GI50 (NCI/ADR-RES)?
Answer: 23.8 µM (inactive)

Question: What about the GI50 (OVCAR-4) of the same molecule?
Answer: 25.1 µM (inactive)

Question: What about the GI50 (HCC 2998) of the same molecule?
Answer: 23.7 µM (inactive)

Question: What about the GI50 (HOP-92) of the same molecule?
Answer: 47.8 µM (inactive)

Question: What about the GI50 (A498) of the same molecule?
Answer: 52 µM (inactive)

Question: And the GI50 (SK-MEL-2)?
Answer: 32.2 µM (inactive)

Question: What about the GI50 (HT-29) of the same molecule?
Answer: 18.7 µM (inactive)

Question: And the GI50 (MDA-MB-435)?
Answer: 27.9 µM (inactive)

Question: What about the GI50 (COLO 205) of the same molecule?
Answer: 24.1 µM (inactive)

Question: And the GI50 (NCI-H522)?
Answer: 27.7 µM (inactive)
